The record followed here is article PMC8818024 (Structure (London, England : 1993), 2021).

The target of one experiment is Arr1 (Bos taurus, UniProt P08168). Nature of the experiment: Tyrosine fluorescence quenching assay of Arr1. As to conditions: intrinsic quenching assay, no Mg2+; Figure 6E-F, Table S1. Type of experiment: binding, bovine.
A further experiment deals with bovine arrestin-1. Kind of experiment: cwEPR of spin-labeled arrestin C-tail mutants. Particulars: spin-labeled Arr1 mutants, room temperature, compared with apo-Arr1; Figure 3D.

Structures are written as SMILES. Entries after “also recorded” stand apart in the source; their conditions may differ.

Arr1, sequence (P08168 whole entry): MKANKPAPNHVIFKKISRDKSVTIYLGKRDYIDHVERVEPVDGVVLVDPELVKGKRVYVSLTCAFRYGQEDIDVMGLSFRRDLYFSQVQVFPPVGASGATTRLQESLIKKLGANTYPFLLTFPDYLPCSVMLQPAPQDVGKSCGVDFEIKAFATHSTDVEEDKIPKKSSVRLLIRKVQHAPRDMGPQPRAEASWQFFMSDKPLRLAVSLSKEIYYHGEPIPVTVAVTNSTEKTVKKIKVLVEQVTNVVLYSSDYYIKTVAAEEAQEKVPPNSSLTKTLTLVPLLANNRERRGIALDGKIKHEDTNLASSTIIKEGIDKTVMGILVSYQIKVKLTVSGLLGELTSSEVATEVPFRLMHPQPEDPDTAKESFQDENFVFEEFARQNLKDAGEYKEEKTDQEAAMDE

With `O=P(O)(O)O[C@@H]1[C@H](O)[C@H](O)[C@@H](OP(=O)(O)O)[C@H](OP(=O)(O)O)[C@H]1O` [InsP3, (1,4,5) myo-D-inositol triphosphate], the “relative affinity for Arr1 (in words)” value on Arr1 is recorded as “somewhat lower affinity; also recorded: lower relative affinity”. For the same compound, in the experiment on bovine arrestin-1, the “C-tail flexibility by cwEPR (sites T396 and A401)” value was “slightly more flexibility than InsP6”.
